# Measurements published in ChEMBL document CHEMBL3351954, “Enhanced water-soluble derivative of PC407 as a novel potential COX-2 inhibitor injectable formulation” (Bioorg Med Chem Lett, 2014).
# Active and inactive are the calls of the source. The calls are words filed in the database; no cut-off is given here.
# Columns and labels:
# Mus musculus [1] = experiment: Analgesic activity in Kun Ming mouse model assessed as inhibition of acetic acid-induced visceral pain at 0.1 mmol/kg, iv administered 5 mins prior to acetic acid challenge measured after 15 mins by writhing assay relative to control; type: functional; set-up: scale not given: the % may be the effect or the level left
# Mus musculus [2] = experiment: Analgesic activity in Kun Ming mouse model assessed as inhibition of acetic acid-induced visceral pain at 0.1 mmol/kg, iv administered 5 mins prior to acetic acid challenge measured after 30 mins by writhing assay relative to control; type: functional; set-up: scale not given: the % may be the effect or the level left
# [3] = target: T1, Prostaglandin G/H synthase 2 (Homo sapiens) (UniProt P35354); experiment: Inhibition of recombinant COX-2 (unknown origin) at 0.1 uM
# T1 sequence (whole entry): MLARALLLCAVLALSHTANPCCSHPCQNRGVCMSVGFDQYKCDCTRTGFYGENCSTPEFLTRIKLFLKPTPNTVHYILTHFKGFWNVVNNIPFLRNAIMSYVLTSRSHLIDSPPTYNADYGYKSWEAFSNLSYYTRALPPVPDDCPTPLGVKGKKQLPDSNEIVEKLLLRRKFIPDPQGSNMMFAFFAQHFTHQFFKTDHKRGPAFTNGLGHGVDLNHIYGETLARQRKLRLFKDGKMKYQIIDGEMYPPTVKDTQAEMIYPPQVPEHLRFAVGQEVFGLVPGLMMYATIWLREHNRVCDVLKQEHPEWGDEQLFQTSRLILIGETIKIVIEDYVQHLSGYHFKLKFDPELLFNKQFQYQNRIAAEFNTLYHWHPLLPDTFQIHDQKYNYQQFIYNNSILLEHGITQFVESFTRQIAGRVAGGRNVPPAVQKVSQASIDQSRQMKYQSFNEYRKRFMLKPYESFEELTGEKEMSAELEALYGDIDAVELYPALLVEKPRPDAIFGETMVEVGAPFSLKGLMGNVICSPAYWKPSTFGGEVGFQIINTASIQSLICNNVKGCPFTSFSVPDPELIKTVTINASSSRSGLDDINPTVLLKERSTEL
# Plasma [4] = experiment: Drug level in Sprague-Dawley rat plasma treated with 5 mg/kg, iv after 10 mins to 4 hrs; type: ADME, organism-based; set-up: dose 5 mg/kg, route intravenous; details: in vivo
# [5] = target: Prostaglandin G/H synthase 1 (Homo sapiens) (UniProt P23219); experiment: Inhibition of recombinant COX-1 (unknown origin) at 0.1 uM
# [6] = Solubility of the compound in water at 25 degC by HPLC analysis; type: physicochemical
# [7] = target: Prostaglandin G/H synthase 1 (Homo sapiens) (UniProt P23219); experiment: Inhibition of recombinant COX-1 (unknown origin) at 10 uM
# [8] = target: T1, Prostaglandin G/H synthase 2 (Homo sapiens); experiment: Inhibition of recombinant COX-2 (unknown origin) at 10 uM
# Plasma [9] = experiment: Prodrug conversion in Sprague-Dawley rat plasma assessed as PC407 formation at 5 mg/kg, iv after 1.5 hrs; type: ADME, organism-based; set-up: dose 5 mg/kg, route intravenous; details: in vivo
# [10] = Toxicity in iv dosed Kun Ming mouse; type: organism-based; details: in vivo
# Prostaglandin G/H synthase 1 (Homo sapiens), sequence (P23219 whole entry): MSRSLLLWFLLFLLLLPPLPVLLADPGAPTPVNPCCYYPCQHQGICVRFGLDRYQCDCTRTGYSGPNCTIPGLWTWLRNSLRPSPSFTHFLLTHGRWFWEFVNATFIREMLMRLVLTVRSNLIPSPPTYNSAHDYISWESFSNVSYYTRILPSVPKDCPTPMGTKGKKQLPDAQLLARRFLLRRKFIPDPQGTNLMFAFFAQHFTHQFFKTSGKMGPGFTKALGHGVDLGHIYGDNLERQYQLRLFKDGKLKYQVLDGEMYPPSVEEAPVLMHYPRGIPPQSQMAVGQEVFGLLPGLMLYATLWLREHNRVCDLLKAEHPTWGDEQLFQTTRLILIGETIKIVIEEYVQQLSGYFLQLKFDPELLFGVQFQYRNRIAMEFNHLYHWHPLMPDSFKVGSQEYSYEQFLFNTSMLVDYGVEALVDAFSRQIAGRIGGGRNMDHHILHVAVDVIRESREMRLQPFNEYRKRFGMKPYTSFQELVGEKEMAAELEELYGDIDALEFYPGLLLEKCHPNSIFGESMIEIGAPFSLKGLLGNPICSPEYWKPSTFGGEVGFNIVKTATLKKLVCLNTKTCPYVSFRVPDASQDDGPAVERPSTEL
inhibition [3],Drug uptake (Plasma [4]),inhibition [5],Compound,Activity (Mus musculus [1]),Activity (Mus musculus [2]),solubility [6],inhibition [7],inhibition [8],Drug metabolism (Plasma [9]),MTD [10]
100%,Active,inactive,NS(=O)(=O)c1ccc(-n2nc(C(F)(F)F)cc2-c2ccc3ccccc3c2)cc1,83%,81%,0.0016 mg/mL,,,,
,,,O=C([O-])CCC(=O)[N-]S(=O)(=O)c1ccc(-n2nc(C(F)(F)F)cc2-c2ccc3ccccc3c2)cc1.[Na+].[Na+],77%,83%,20.3 mg/mL,inactive,inactive,metabolite_detected,> 1500 mg/kg
